We go through seven molecules from patent US4636498A, “Formulation of antiinflammatory drugs” (Pfizer Inc., priority 1985, dated 1987).

Several values for one entry are separate records, joined by “and”; a condition that tells them apart may be missing. Identical values can stand only once. Counter-ions that a name gives are not always drawn. Like-named read-outs stand apart in the source and are kept apart here.

Test [1] has as its system indomethacin-induced gastric lesions. As to the kind of experiment: Prevention of indomethacin-induced gastric lesions in rats. The format is in vivo, rat (male, CD strain). To be noted: for ED50: Rattus norvegicus, po, mg/kg of free base, read-out: ID50 (the source's name). The source says:
Rats for testing were ordered to arrive the week before being tested, and acclimated that first week. Male, CD strain rats were used. By ordering at 100-125 grams, body weights during the second week generally ranged from 150-200 grams. Rats were fasted the day before the test, with food removed from the gang cages no later than 4 p.m. Following an overnight fast a loss of 15-20 grams body weight was anticipated, so volumes of test solutions required for the following day could be estimated. Water was allowed ad lib overnight and during the test itself. On the test day both oral and intraperitoneal dosing was done with volumes of 4.0 ml/kg. Therefore, by knowing approximate body weights (and therefore required volumes) as well as drug doses (mg/kg) to be used, the amount of antiulcer drug and indomethacin needed was determined and preweighed into test tubes the day before the test. The antiulcer drugs to be tested, in the form of their dihydrochloride salts, were put into solution or suspended. Distilled water was normally the vehicle used. Indomethacin was suspended in saline and homogenized with a small drop of Tween 80 (polysorbate 80) to prevent aggregation of particles. The indomethacin will not stay suspended in the saline, and it is critical that the test tube be well vortexed and the drug resuspended before each dose is drawn into a syringe. A random sample of the rats to be tested (usually about 20% of the total test group) was used to determine average body weight of the group. […] The rats were removed from the gang cage, given the test drug or vehicle p.o., and placed in individual cages. The timing of antiulcer drug dosing relative to the indomethacin challenge varied depending on the specific protocol used. As a typical test consisted of 7 groups of 7 rats each, a predose time of 45 minutes was conveniently used. This allowed about one minute to orally dose each rat. Indomethacin was administered i.p. after the predose time had elapsed. In the typical test mentioned above, this required going back to the first rat and beginning indomethacin injections as soon as the drug dosing was completed. To keep the predose time consistent, rats were also given the indomethacin at a rate of about one per minute. If the test compound was not expected to have a long duration of action, it was desirable to administer a second dose of antiulcer drug during the test. The typical time between indomethacin administration and sacrifice is 6.5 hours. […] Of course, control animals were also dosed with vehicle at this time. The rats were sacrificed 6.5 hours after administration of the indomethacin. The stomachs were excised, opened along the greater curvature, and rinsed under running water. Lightly rubbing the mucosa while holding it in the stream of water helped to remove some mucus and large clots of blood, but vigorous rubbing was avoided as it may dislodge blood from the indomethacin-induced hemorrhagic erosions, making the erosions extremely difficult to see. Next the stomachs were placed flat, mucosa side up, on a tray covered with saline-soaked towels. The lesions were then counted, or the stomachs held overnight for examination the following day. If they were stored overnight, the stomachs were first moistened with saline and placed in a polyethylene bag and in a refrigerator. The indomethacin-induced gastric lesions usually appeared as dark brown or black colored erosions in the corpus (the acid-secreting portion) of the stomach. The dark coloration is caused by the action of the gastric acid on blood within the erosion. Lesions were either punctate or linear in nature. Quantitative determination of lesion size has shown that the average lesion length is about 1 mm. Regardless of size, each individual lesion was counted as one. However, if one group of animals obviously had lesions of a different nature than the controls, this fact was recorded. […]

For test [2], the system named is piroxicam-induced gastric lesions. As to the kind of experiment: Piroxicam-induced gastric lesions in rats. The format is in vivo, rat (male, CD strain, Sprague-Dawley). The procedure:
Adult male "specific pathogen free" rats weighing 140-160 grams of the CD strain (Sprague-Dawley) were obtained from Charles River Breeding Laboratories (Kingston, N.Y.). The animals were acclimated for approximately one week and tested when they reached a body weight of 200-225 grams. The rats were fasted for 16 hours and randomized into groups consisting of 8 to 10 animals which were normalized with regard to their average body weight. Gastric ulcers were induced in the animals by orally dosing the animals with a single 100 mg/kg dose of piroxicam solution containing the drug dissolved in 2 ml 0.1% methylcellulose in water (pH=6.8). Those animals receiving 2-guanidino-4-(2-methyl-4-imidazolyl)thiazole (0.3, 1.0, 3.3 or 10.0 mg/kg as the dihydrochloride salt) separately received that drug, dissolved in an additional 2 ml of the same medium, at about the same time. Six and one-half hours later, the animals were sacrificed by cervical dislocation and autopsied. The stomachs were surgically removed, dissected along the greater curvature and rinsed with cold water. The stomachs were individually scored for both linear and punctate lesions. The total number of lesions was used for scoring purposes. The data obtained from each group of rats was analyzed after calculation of the mean number +/- the standard error of total gastric lesions. […]

The subject of test [3] is gastric lesions induced by the ethanolamine salt of piroxicam. As to the kind of experiment: Gastric lesions in rats induced by the ethanolamine salt of piroxicam. The format is in vivo, rat. To be noted: for ED50: Rattus norvegicus, po, 6.5 h, linear regression analyses. As to the method: Adult male "specific pathogen free" rats weighing 140-160 grams of the CD strain (Sprague-Dawley) were obtained from Charles River Breeding Laboratories (Kingston, N.Y.). The animals were acclimated for approximately one week and tested when they reached a body weight of 200-225 grams. The rats were fasted for 16 hours and randomized into groups consisting of 8 to 10 animals which were normalized with regard to their average body weight. Gastric ulcers were induced in the animals by orally dosing the animals with a single 100 mg/kg dose of piroxicam solution containing the drug dissolved in 2 ml 0.1% methylcellulose in water (pH=6.8). Those animals receiving 2-guanidino-4-(2-methyl-4-imidazolyl)thiazole (0.3, 1.0, 3.3 or 10.0 mg/kg as the dihydrochloride salt) separately received that drug, dissolved in an additional 2 ml of the same medium, at about the same time. Six and one-half hours later, the animals were sacrificed by cervical dislocation and autopsied. The stomachs were surgically removed, dissected along the greater curvature and rinsed with cold water. The stomachs were individually scored for both linear and punctate lesions. The total number of lesions was used for scoring purposes. The data obtained from each group of rats was analyzed after calculation of the mean number +/- the standard error of total gastric lesions. The values obtained were also compared to the controls which received only piroxicam by the two-tailed Student's t-test for nonpaired data.
According to the preceding Example, gastric ulcers were induced by a single dose of 100 mg of the ethanolamine salt of piroxicam. Test groups received 0.3, 1.0 and 3.3 mg/kg doses of 2-guanidino-4-(2-methyl-4-imidazolyl)thiazole.
This test was repeated, using 120 mg of the ethanolamine salt of piroxicam to induce ulcers.
According to Examples 2 and 3, gastric ulcers were induced by a single dose of 120 mg of the ethanolamine salt of piroxicam. Test groups received 0.03, 0.10 and 0.33 mg/kg doses of 2-(N-pentyl-N'-guanidino)-4-(2-methyl-4-imidazolyl)thiazole dihydrochloride.

For test [4], the system named is adjuvant-induced arthritis. In words: Adjuvant-induced arthritis in the rat (inhibition of paw edema). Format: in vivo, rat (male Wistar-Lewis). To be noted: for % Inhibition of Lesions, Primary: day 4, injected paw; for % Inhibition of Lesions, Secondary: day 16, non-injected paw; for ED50: Rattus norvegicus, po, piroxicam alone, linear regression analysis. The procedure: Adjuvant arthritis was induced in adult male Wistar-Lewis rats weighing 250-270 grams each (Charles River Breeding Laboratories, Kingston, N.Y.) by a single subplantar injection of 1 mg of Mycobacterium butyricum (Difco Laboratories, Lot #0640-33) suspended in 0.1 ml mineral oil as described by Walz et al. (Proc. Soc. Exptl. Biol. Med., 136: 907-910, 1971). Seven rats were used in each group. Orally administered drugs were dissolved in water and dilute sodium hydroxide was added as necessary to ensure solution; control groups received only water. After neutralization of the solutions to pH 7.0, a volume of 10 ml/kg body weight was given by intubation with a blunt end, 18-gauge needle. Doses of each drug were given daily starting 1 day before the injection of adjuvant and continuing until 16 days after the induction of the arthritic lesion.
The initial hindpaw volumes (Vi) were measured on the day of adjuvant injection and the resultant swelling was determined on the injected paw (Vf - Vi) on the 4th day following the adjuvant injection. This was considered to be the primary response or lesion. The swelling (Vf - Vi) measured 16 days after adjuvant injection on the contralateral, non-injected hindpaw constituted the secondary response or lesion. The rats were weighed at the start of the experiments as well as 4 and 16 days after the induction of the disease. Percent inhibition of edema was calculated according to the following formula: [formula] […] This shift represents a 5 fold increase in the potency of piroxicam.

Another test deals with ethanol-induced ulcers. In words: Inhibition of ethanol-induced ulceration in rats. The format is in vivo, rat (male). To be noted: as dihydrobromide salt. The procedure: The antiulcer activity of the products of Examples 9 and 10 was also determined by an ethanol-induced rat ulcer assay. In this test, overnight fasted male rats are given drug (at 30 or 3 mg/kg) or water orally fifteen minutes prior to an orally administered dose of absolute ethanol (1.0 ml). One hour after the ethanol challenge the animals (8/group) are killed and the stomachs examined for the presence of lesions. After sacrifice the abdomen is opened and a locking hemostat placed at the pylorus. Six ml of a 4% solution of formaldehyde was injected into the stomach with a gastric feeding tube and a second locking hemostat was used to seal the esophagus. The stomach was removed, opened along the greater curvature and examined for ulceration.
The scoring system used to quantitate the ethanol-induced lesions is given below.
For each group of animals an ulcer index is calculated as follows: [formula]
The percentage inhibition of ulcers is calculated as follows: [formula]

The conditions of test [5]: particularly with indomethacin; cited from earlier work.
[6] abbreviates: Compound A oral dose 10.0 mg/kg.

`Cc1nc(-c2csc(NC(=N)N)n2)c[nH]1.Cl.Cl` [Compound A, 2-Guanidino-4-(2-methyl-4-imidazolyl)thiazole Dihydrochloride]: the ED50 was 1.4 mg/kg in test [1] (single drug dose, obtained by extrapolation); 1.5 mg/kg in test [1] (two drug doses, obtained by extrapolation); 0.32 mg/kg in test [2] (Rattus norvegicus, po, 6.5 h, linear regression analyses, piroxicam 100 mg/kg); 0.88 mg/kg in test [3] (piroxicam ethanolamine salt 100 mg); 0.3 mg/kg in test [3] (piroxicam ethanolamine salt 120 mg). For the same molecule, the “Reduction in lesion number” value in test [1] (lowest dose tested, 2.2 mg/kg) is recorded as 63%. The “Reduction of piroxicam-induced gastric lesions (in words)” value in test [2] (0.3-10 mg/kg p.o.) is “significantly reduced piroxicam-induced gastric lesions”. Besides, the “Reduction in gastric lesions induced by the ethanolamine salt of piroxicam (in words)” value in test [3] (0.3-3.3 mg/kg, piroxicam ethanolamine salt 100 mg) is “significant reduction in gastric lesions”. For the same molecule, the entries for the “% Inhibition of Lesions, Primary” value in test [4] (Compound A oral dose 1.0 mg/kg), in test [4] (Compound A oral dose 3.3 mg/kg) and in test [4] (setting [6]) were 0 (6) %, 0 (3) % and 2 (2) %, respectively. The “% Inhibition of Lesions, Secondary” value in test [4] (Compound A oral dose 1.0 mg/kg) is recorded as 3 (3) %; in test [4] (Compound A oral dose 3.3 mg/kg) it was 28 (4) %; in test [4] (setting [6]), 27 (3) %. Moreover, in test [4] (compound alone), the “Activity against secondary lesions (in words)” value is given as “significant activity against secondary lesions”. For the same molecule, in test [4] (compound alone), the “Activity for primary lesions (in words)” value is listed as “no significant activity”. The “ED50 against secondary lesions (in words)” value in test [4] (compound alone) is recorded as “no reliable ED50 could be extrapolated”.
With `Cc1nc(-c2csc(N=C(N)NCc3ccccc3)n2)c[nH]1` [Compound C, 2-(N-Benzyl-N'-guanidino)-4-(2-methyl-4-imidazolyl)thiazole Dihydrochloride], in test [1] (two drug doses), the ED50 was found to be 4.4 mg/kg. For the same molecule, the “Inhibition of ethanol-induced ulceration” value in the test on ethanol-induced ulcers (oral dose 3 mg/kg) was “at least 40%”; in the test with ethanol-induced ulcers (oral dose 30 mg/kg), “at least 77%”.
Take `N[C@@](CF)(Cc1c[nH]cn1)C(=O)O` [alphafluoromethylhistidine]: the “Antiinflammatory activity (in words)” value in test [5] is recorded as “synergistic antiinflammatory activity”.
Regarding `CCCCCNC(N)=Nc1nc(-c2c[nH]c(C)n2)cs1` [Example 10, 4-(2-Methyl-4-imidazolyl)-2-(N-pentyl-N'-guanidino)thiazole Dihydrochloride], the “Reduction in gastric lesions induced by the ethanolamine salt of piroxicam (in words)” value in test [3] (Example 13, 0.03-0.33 mg/kg) is recorded as “significant reduction in gastric lesions”. For the same molecule, the ED50 in test [3] (Example 13, piroxicam ethanolamine salt 120 mg) worked out at 0.1 mg/kg. Further, the “Inhibition of ethanol-induced ulceration” value with ethanol-induced ulcers (oral dose 3 mg/kg) is reported as “at least 40%”; with ethanol-induced ulcers (oral dose 30 mg/kg), “at least 77%”.
Consider `N=C(N)Nc1nc(-c2c[nH]cn2)cs1` [Compound D, 2-guanidino-4-(4-imidazolyl)thiazole], for which the ED50 is 7.5 mg/kg in test [1] (single drug dose) and 2 mg/kg in test [1] (two drug doses).
Turning to `CCCCCCNc1nc(-c2csc(NC(=N)N)n2)c[nH]1` [Compound B, 2-Guanidino-4-(2-hexylamino-4-imidazolyl)thiazole], the ED50 in test [1] (two drug doses) was 10.5 mg/kg.
Regarding `CN1C(C(=O)Nc2ccccn2)=C(O)c2ccccc2S1(=O)=O` [Piroxicam], the ED50 in test [4] (96 h, read-out: ED50 against primary lesions) turned out to be 2.6 mg/kg; in test [4] (384 h, read-out: ED50 against secondary lesions) it was 0.45 mg/kg. Also, the “% Inhibition of Lesions, Primary” value in test [4] (piroxicam oral dose 0.10 mg/kg) was 29 (4) %; in test [4] (piroxicam oral dose 0.33 mg/kg), 33 (8) %; in test [4] (piroxicam oral dose 1.00 mg/kg), 45 (7) %. Also, the “% Inhibition of Lesions, Secondary” value in test [4] (piroxicam oral dose 0.10 mg/kg, 0.1 mg/kg) is 26 (2) % and 26%; in test [4] (piroxicam oral dose 0.33 mg/kg, 0.33 mg/kg) it was 43 (4) % and 43%; in test [4] (piroxicam oral dose 1.00 mg/kg, 1 mg/kg), 64 (3) % and 64%.
